Results taken from ChEMBL document CHEMBL1147145, “Scaffold targeting drug-resistant colon cancers” (J Med Chem, 2007).
Non-standard residues stand in square brackets, D forms with d. Residues, ends and D or L forms follow the SMILES beside them. *: point of attachment. NMeF = CN[C@@H](Cc1ccccc1)C(=O)O; Cha = N[C@@H](CC1CCCCC1)C(=O)O; NMeL = CN[C@@H](CC(C)C)C(=O)O; dNMeL = CN[C@H](CC(C)C)C(=O)O; dNMeV = CN[C@@H](C(=O)O)C(C)C; Cbz = O=C(OCc1ccccc1)*; Sar = CNCC(=O)O

Tests used:
HCT-116 [1] = assay: Growth inhibition in HCT116 cells assessed as inhibition of [3H]thymidine incorporation at 1 uM relative to control; assay type: functional; settings: Homo sapiens, read-out: TGI
HCT-15 [2] = assay: Growth inhibition in HCT15 cells assessed as inhibition of [3H]thymidine incorporation at 1 uM relative to control; assay type: functional; settings: Homo sapiens, read-out: TGI
HCT-116 [3] = assay: Growth inhibition in HCT116 cells assessed as inhibition of [3H]thymidine incorporation; assay type: functional, cell-based; settings: Homo sapiens
[4] = Growth inhibition in WS1 cells assessed as inhibition of [3H]thymidine incorporation; assay type: functional, cell-based; settings: Homo sapiens
HCT-15 [5] = assay: Growth inhibition in HCT15 cells assessed as inhibition of [3H]thymidine incorporation; assay type: functional, cell-based; settings: Homo sapiens

SMILES | inhibition of growth at 1 µM (HCT-116 [1]) | inhibition of growth at 1 µM (HCT-15 [2]) | IC50 (HCT-116 [3]) | IC50 [4] | IC50 (HCT-15 [5])
CC(C)C[C@@H]1NC(=O)[C@H](Cc2ccc(O)cc2)NC(=O)[C@H](CC(C)C)N(C)C(=O)[C@H](C(C)C)NC(=O)[C@H](CC(C)C)NC1=O (cyclo(LLV[NMeL]Y)) | 20% | 3% | – | – | –
O=c1[nH]cc(F)c(=O)[nH]1 [FLUOROURACIL] | – | – | 300 µM | 300 µM | 300 µM
CC(C)C[C@@H]1NC(=O)[C@H](Cc2ccccc2)NC(=O)[C@@H](Cc2ccccc2)N(C)C(=O)[C@H](C(C)C)NC(=O)[C@H](CC(C)C)NC1=O | 59% | 57% | – | 200 µM | 0.65 µM
CC(C)C[C@@H]1NC(=O)[C@@H](CC(C)C)NC(=O)[C@H](Cc2ccccc2)NC(=O)[C@H](CC(C)C)NC(=O)[C@@H](C(C)C)NC1=O (cyclo(F[dL]L[dV]L)) | 16% | 20% | – | – | –
CC(C)C[C@@H]1NC(=O)[C@H](Cc2ccccc2)NC(=O)[C@@H](CC(C)C)N(C)C(=O)[C@H](C(C)C)NC(=O)[C@H](CC(C)C)NC1=O (cyclo(FLLV[dNMeL])) | 25% | 33% | – | – | –
CC(C)C[C@@H]1NC(=O)[C@@H](C(C)C)NC(=O)[C@H](CC(C)C)NC(=O)[C@H](CC(C)C)N(C)C(=O)[C@H](Cc2ccccc2)NC1=O (cyclo(F[NMeL]L[dV]L)) | 38% | 19% | – | – | –
CC(C)C[C@@H]1NC(=O)[C@H](Cc2ccccc2)NC(=O)[C@@H](Cc2ccccc2)NC(=O)[C@H](C(C)C)NC(=O)[C@H](CC(C)C)NC1=O | 35% | 14% | 200 µM | – | 300 µM
CC(C)C[C@@H]1NC(=O)[C@H](Cc2ccccc2)NC(=O)[C@@H](CC(C)C)NC(=O)[C@@H](C(C)C)NC(=O)[C@H](CC(C)C)NC1=O (cyclo(FLL[dV][dL])) | 41% | 21% | – | – | –
CC(C)C[C@@H]1NC(=O)[C@H](Cc2ccccc2)NC(=O)[C@H](CC(C)C)NC(=O)[C@@H](C(C)C)NC(=O)[C@H](CCCCN)NC1=O (cyclo(FLK[dV]L)) | 11% | 18% | – | – | –
CC(C)C[C@@H]1NC(=O)[C@@H](Cc2ccccc2)NC(=O)[C@@H](CC(C)C)NC(=O)[C@@H](C(C)C)N(C)C(=O)[C@H](CC(C)C)NC1=O | 44% | 35% | – | – | –
CC(C)C[C@@H]1NC(=O)[C@@H](C(C)C)N(C)C(=O)[C@H](CC(C)C)NC(=O)[C@@H](CC(C)C)NC(=O)[C@H](Cc2ccccc2)NC1=O | 0% | 0% | – | – | –
CC(C)C[C@@H]1NC(=O)[C@@H](CC(C)C)N(C)C(=O)[C@H](Cc2ccccc2)NC(=O)[C@H](C(C)C)NC(=O)[C@H](C(C)C)NC1=O | 42% | 48% | 2 µM | 200 µM | 1.2 µM
CC(C)C[C@@H]1NC(=O)[C@H](Cc2ccccc2)NC(=O)[C@H](CC(C)C)NC(=O)[C@H](C(C)C)NC(=O)[C@@H](CC(C)C)NC1=O (cyclo(FL[dL]VL)) | 0% | 15% | – | – | –
CC(C)C[C@@H]1NC(=O)[C@H](Cc2ccccc2)NC(=O)[C@H](CC(C)C)NC(=O)[C@@H](C(C)C)N(C)C(=O)[C@H](CC2CCCCC2)NC1=O (cyclo([Cha][dNMeV]LFL)) | 48% | 60% | 2 µM | 16 µM | –
CC(C)C[C@@H]1NC(=O)[C@H](C(C)C)NC(=O)[C@H](CC(C)C)N(C)C(=O)[C@H](CC(C)C)N(C)C(=O)[C@H](Cc2ccccc2)NC1=O | 30% | 57% | – | – | –
CC(C)C[C@@H]1NC(=O)CN(C)C(=O)[C@H](Cc2ccccc2)NC(=O)[C@H](C(C)C)NC(=O)[C@@H](C(C)C)NC1=O (cyclo(F[Sar]L[dV]V)) | 20% | 18% | – | – | –

SMILES | inhibition of growth at 1 µM (HCT-116 [1]) | inhibition of growth at 1 µM (HCT-15 [2]) | IC50 (HCT-116 [3]) | IC50 [4] | IC50 (HCT-15 [5])
CC(C)C[C@@H]1NC(=O)[C@H](Cc2ccccc2)NC(=O)[C@H](CC(C)C)NC(=O)[C@H](C(C)C)N(C)C(=O)[C@H](CC(C)C)NC1=O | 6% | 23% | – | – | –
CC(C)C[C@@H]1NC(=O)[C@H](Cc2ccccc2)NC(=O)[C@H](CC(C)C)NC(=O)[C@@H](C(C)C)NC(=O)[C@H](CCCCNC(=O)OCc2ccccc2)NC1=O (cyclo(FLK(Cbz)[dV]L)) | 16% | 3% | – | – | –
CC(C)C[C@@H]1NC(=O)[C@H](Cc2ccccc2)NC(=O)[C@H](CC(C)C)NC(=O)[C@@H](C(C)C)N(C)C(=O)[C@H](CC(C)C)NC1=O | 19% | 21% | – | – | –
CC(C)C[C@@H]1NC(=O)[C@H](CC(C)C)NC(=O)[C@@H](Cc2ccccc2)NC(=O)[C@H](CC(C)C)NC(=O)[C@H](C(C)C)NC1=O (cyclo(LLVL[dF])) | 30% | 26% | – | – | –
CC(C)C[C@@H]1NC(=O)[C@H](Cc2ccccc2)NC(=O)[C@H](CC(C)C)NC(=O)[C@@H](C(C)C)NC(=O)[C@H](CC(C)C)NC1=O (cyclo(FLL[dV]L)) | 48% | 48% | – | 20 µM | –
CC(C)C[C@@H]1NC(=O)[C@H](CC(C)C)NC(=O)[C@H](Cc2ccccc2)N(C)C(=O)[C@H](CC(C)C)NC(=O)[C@H](C(C)C)NC1=O (cyclo([NMeF]LLVL)) | 2% | 18% | – | – | –
CC(C)C[C@@H]1NC(=O)[C@H](C(C)C)NC(=O)[C@@H](CC(C)C)NC(=O)[C@@H](CC(C)C)NC(=O)[C@H](Cc2ccccc2)NC1=O (cyclo(F[dL][dL]VL)) | 28% | 40% | – | – | –
CC(C)C[C@@H]1NC(=O)[C@H](C(C)C)NC(=O)[C@H](CC(C)C)NC(=O)[C@H](CC(C)C)N(C)C(=O)[C@H](Cc2ccccc2)NC1=O (cyclo(F[NMeL]LVL)) | 59% | 35% | – | – | –
CC(C)C[C@@H]1NC(=O)[C@H](C(C)C)NC(=O)[C@H](CC(C)C)NC(=O)[C@@H](CC(C)C)N(C)C(=O)[C@H](Cc2ccccc2)NC1=O (cyclo([dNMeL]LVLF)) | 45% | 10% | – | – | –
CC(C)C[C@@H]1NC(=O)[C@H](Cc2ccccc2)NC(=O)[C@H](CC(C)C)NC(=O)[C@@H](Cc2ccccc2)NC(=O)[C@H](CC(C)C)NC1=O (cyclo(FLL[dF]L)) | 11% | 11% | – | – | –
CC(C)C[C@@H]1NC(=O)[C@H](Cc2ccccc2)NC(=O)[C@H](CC(C)C)NC(=O)[C@H](C(C)C)NC(=O)[C@H](CC(C)C)NC1=O (cyclo(FLLVL)) | 28% | 10% | – | 300 µM | 21 µM
CC(C)C[C@@H]1NC(=O)[C@H](Cc2ccccc2)NC(=O)[C@@H](CC(C)C)NC(=O)[C@H](C(C)C)NC(=O)[C@H](CC(C)C)NC1=O (cyclo(FLLV[dL])) | 18% | 10% | – | – | –
CC(C)C[C@@H]1NC(=O)[C@H](CC(C)C)NC(=O)[C@@H](Cc2c[nH]c3ccccc23)NC(=O)[C@H](CC(C)C)NC(=O)[C@H](C(C)C)NC1=O (cyclo(LLVL[dW])) | 2% | 9% | – | – | –
CC(C)C[C@@H]1NC(=O)[C@H](C(C)C)NC(=O)[C@H](CC(C)C)N(C)C(=O)[C@@H](CC(C)C)N(C)C(=O)[C@H](Cc2ccccc2)NC1=O | 23% | 30% | – | – | –
CC(C)C[C@@H]1NC(=O)[C@H](CC(C)C)NC(=O)[C@@H](Cc2ccc(O)cc2)NC(=O)[C@H](CC(C)C)NC(=O)[C@H](C(C)C)NC1=O (cyclo(LLVL[dY])) | 45% | 60% | – | 200 µM | –
CC(C)C[C@@H]1NC(=O)[C@H](Cc2ccccc2)NC(=O)[C@H](CC(C)C)NC(=O)[C@@H](CO)NC(=O)[C@H](CC(C)C)NC1=O (cyclo(FLL[dS]L)) | 0% | 11% | – | – | –
